Values quoted from earlier work as cited in patent publication US20110229584A1, “Compound for the control of herpes simplex virus using glycyrrhizic acid, lipoic acid, allantoin, and slippery elm” (priority 2010, published 2011).

Columns and labels:
HSV-1 [1] = conditions: applied topically to infected epidermal areas
HSV-1 [2] = test system: HSV-1
[3] = test system: severe acute respiratory syndrome (SARS)
[4] = test system: human aortic endothelial cells
HSV-2 = conditions: incubated with the viruses for more than 30 minutes
Epstein-Barr = conditions: incubated with the viruses for more than 30 minutes
zoster = conditions: incubated with the viruses for more than 30 minutes
HSV-1 [5] = test system: HSV-1; remark: listed apart in the source

Q: For `Cl.NCCCC[C@H](N)C(=O)O` [Lysine monohydrochloride, L-Lysine Monohydrochloride], which “inactivation of HSV-1” value (HSV-1 [1]) is on record?
A: The value was “not to be able to inactivate”.

Q: Which “decrease of pain duration” value (HSV-1 [2]; from 4.1 days) does the source give for `Nc1nc2c(ncn2CCC(CO)CO)c(=O)[nH]1` [Penciclovir] here?
A: Its value is 0.6 days.

Q: What about the “healing time of the lesions with treatment” value (HSV-1 [2]; treated group) of the same compound?
A: The value was 4.8 days.

Q: And the “pain duration with treatment” value (HSV-1 [2]; treated group)?
A: Its value is 3.5 days.

Q: And the lesion virus shedding (HSV-1 [2]; versus placebo)?
A: Its lesion virus shedding is “marginally changed”.

Q: And the “healing of the lesions faster versus placebo” value (HSV-1 [2]; versus placebo 5.5 days)?
A: Its value is 0.7 days.

Q: With `CCCCCCCCCCCCCCCCCCCCCCO` [Docosanol, docosanol] as the compound, how does the “decrease of mean time of healing” value (HSV; both treatment phases, applied early in the stages of infection) read?
A: Its value is “more than 50%”.

Q: What about the “healing time of first episodes with treatment (average)” value (HSV; first episodes) of the same compound?
A: Its value is 5.4 days.

Q: What about the “reduction of healing times of first episodes (average)” value (HSV; first episodes, from 7.3 days) of the same compound?
A: Its value is 1.9 days.

Q: With `CC1(C)[C@@H](O)CC[C@]2(C)[C@H]3C(=O)C=C4[C@@H]5C[C@@](C)(C(=O)O)CC[C@]5(C)CC[C@@]4(C)[C@]3(C)CC[C@@H]12` [glycrrhetic acid] as the compound, how does the “inhibition of severe acute respiratory syndrome (SARS)” value [3] read?
A: The value was “inhibit”.

Q: Which results are given for `O=C(O)CCCCC1CCSS1` (stereo not drawn) [Lipoic acid, alpha-Lipoic acid]?
A: LPS-caused expression of cellular adhesion molecules and adherence of monocytes to human aortic endothelial cells [4]: inhibit; LPS-triggered NF-B DNA binding activities [4]: inhibited

Q: Which “inactivation of HSV-2” value (HSV-2) does the source give for `CC1(C)[C@@H](O[C@H]2O[C@H](C(=O)O)[C@@H](O)[C@H](O)[C@H]2O[C@@H]2O[C@H](C(=O)O)[C@@H](O)[C@H](O)[C@H]2O)CC[C@]2(C)[C@H]3C(=O)C=C4[C@@H]5C[C@@](C)(C(=O)O)CC[C@]5(C)CC[C@@]4(C)[C@]3(C)CC[C@@H]12` [Glycyrrhizic acid] here?
A: The value was “more than 90%”.

Q: What about the “inhibition of severe acute respiratory syndrome (SARS)” value [3] of the same compound?
A: Its value is “inhibit”.

Q: What about the “inactivation of Epstein-Barr” value (Epstein-Barr) of the same compound?
A: The value was “more than 90%”.

Q: What about the “growth and cytopathic effect of vesicular viomantitis” value (vesicular viomantitis) of the same compound?
A: The value was “inhibit”.

Q: What about the “growth and cytopathic effect of vaccinia” value (vaccinia) of the same compound?
A: Its value is “inhibit”.

Q: And the “deactivation of HSV” value (Herpes simplex (HSV))?
A: Its value is “irreversibly deactiveate”.

Q: What about the “growth and cytopathic effect of Herpes simplex (HSV)” value (Herpes simplex (HSV)) of the same compound?
A: The value was “inhibit”.

Q: And the inactivation of zoster (zoster)?
A: The inactivation of zoster was “more than 90%”.

Q: What about the “activity against in vivo HSV-1” value (HSV-1 [5]; in vivo) of the same compound?
A: The value was “strong activity”.

Q: And the “resistance of thermally injured mice to HSV-1” value (HSV-1 [5]; thermally injured mice)?
A: The value was “improve”.

Q: What about the “growth and cytopathic effect of Newcastle's Disease” value (Newcastle's Disease) of the same compound?
A: The value was “inhibit”.
